Series [1] relates to B16/F0 murine melanoma cells. The experiment in a line: In-vitro tumor-cell uptake, melanoma cells. In kind it is cell-based. As to conditions: for % active: active part of in-vitro uptake, 37° C. vs 4° C. How it is done:
In-Vitro Tumor-Uptake Studies. Tumor-cell uptake studies in B16/F0 murine melanoma cells were performed with complexes Tc-(Compound A-D and H-M) at 37° C. and 4° C. Additionally, tumor-cell uptake of complex Tc-(Compound A) was investigated in another rapidly dividing MCF-7 human breast cancer cell line.
In-Vitro Cell Studies. Murine B16/F0 melanoma cells and human MCF-7 breast cancer cells were obtained from American Type Culture Collection, Manassas Va., (ATCC) and were grown in T-175 flasks in 14 mL Dulbecco's Modified Eagle Medium (D-MEM; Gibco, Life Technology, Gaithersburg, Md.) containing 4500 mg/L D-glucose, L-glutamine, and pyridoxine hydrochloride, 110 mg/L sodium pyruvate, 10% fetal bovine serum (FBS), 0.2% gentamicin and 0.5% penicillin-streptomycin solution. All cells were harvested from cell culture flasks by trypsinization with 1 mL trypsin-EDTA solution (0.25% trypsin, 1 mM EDTA×4 Na) (Gibco). After being washed with 12 mL Dulbecco's Phosphate-Buffered Saline (PBS) (Gibco), pH 7.2 (Ca^2+- and Mg^2+-free; g/L KCl, 0.20; KH2PO4, 0.20; NaCl, 8.00; Na2HPO4, 1.15), the cells were counted and resuspended in 8 mL S-MEM (Gibco) (Ca^2+ free, with reduced Mg^2+ content) and stored at 4° C. until use.
For in-vitro tumor-cell accumulation studies, 5×10^6 cells in polypropylene test tubes were incubated at 37° C. or 4° C., with intermittent agitation with 1-2 μCi (5 μL) ^99mTc-complex Tc-(Compound A-D) in a total volume of 350 μL S-MEM. At appropriate time intervals the tubes were vortexed and 8-μL samples were layered on 350 μL cold FBS in a 400-μL Eppendorf microcentrifuge tube. After centrifugation at 15,000 rpm for 2 min, the tubes were frozen in a dry ice-acetone bath. While still frozen, the bottom tip of the microcentrifuge tube containing the cell pellet was cut and placed in a counting tube. The remaining portion of the tube with the supernatant was placed in a separate counting tube. Both fractions were counted for radioactivity in a γ-counter (WALLAC, 1480 WIZARD 3″™). The amount of supernatant in the cell pellet was determined to be <1% in separate experiments. The percentage cell uptake of the ^99mTc-complex was calculated as: % uptake=[cpm(pellet)]/[cpm(pellet)+cpm(supernatant)]×100

For series [2], the system named is B16/F0 murine melanoma. The series can be described thus: In-vivo tumor uptake and biodistribution. Further details: species or system C57B16 mice. How it is done:
In-Vivo Tumor Uptake. To study the tumor uptake of ^99mTc-complexes, Tc-(Compound A-D and J-K), in vivo, biodistribution experiments at 1 h and 6 h after their administration were carried out in C57B16 mice with palpable B16 melanoma nodules. The biodistribution data including melanoma/nontumor (M/NT) ratios for selected organs are summarized in Table 4 and 5 as percentage injected dose per gram ([…]).
Animal Studies. All animal experiments were performed in compliance with the Principles of Laboratory Animal Care (NIH publication #85-23, revised 1985). Biodistribution studies and tumor-uptake measurements were performed in C57B16 mice (15 to 20 g) bearing the B16/F0 murine melanoma on the hind limb. See for example the studies described in, which are hereby incorporated by reference, Brandau, W.; Niehoff, T.; Pulawski, P.; Jonas, M.; Dutschka, K.; Sciuk, J.; Coenen, H. H.; Schober, O. Structure Distribution Relationship of Iodine-123-Iodobenzamides as Tracers for the Detection of Melanotic Melanoma. J. Nucl. Med. 1996, 37, 1865-1871; Mohanmmed, A.; Nicholl, C.; Titsch, U.; Eisenhut, M. Radiojodinated N-(Alkylaminoalkyl)-Substituted 4-Methoxy-, 4-Hydroxy-, and 4-Aminobenzamides: Biological Investigations for the Improvement of Melanoma-Imaging Agents. Nucl. Med. Biol. 1997, 24, 373-380; Titsch, U.; Mohammed, A.; Wagner, S.; Oberdorfer, F.; Eisenhut, M. Syntheses of N-(2-Diethylaminoethyl)benzamides Suitable for ^99mTc Complexation. J. Labelled Compd. Radiopharm. 1997, 40, 416-418; Dittmann, H.; Coenen, H. H.; Zölzer, F.; Dutschka, K.; Brandau, W.; Streffer, C. In Vitro Studies on the Cellular Uptake of Melanoma Imaging Aminoalkyl-iodobenzamide Derivatives (ABA). Nucl. Med. Biol. 1999, 26, 51-56; and Michelot, J. M.; Moreau, M. F. C.; Veyre, A. J.; Bonafous, J. F.; Bacin, F. J.; Madelmont, J. C.; Bussiere, F.; Souteyrand, P. A.; Mauclaire, L. P.; Chossat, F. M.; Papon, J. M.; Labarre, P. G.; Kauffmann, Ph.; Plagne, R. J. Phase II Scintigraphic Clinical Trial of Malignant Melanoma and Metastases with Iodine-123-N-(2-Diethylaminoethyl 4-Iodobenzamide). J. Nucl. Med. 1993, 34, 1260-1266. The tumor cells (B16/F0), obtained from ATCC, were washed with PBS and transplanted subcutaneously on the left hind flank by an inoculation of 0.5×10^6 cells (0.1 mL). Ten to 14 days later the animals developed palpable tumor nodules 3 to 5 mm in diameter. The biodistribution studies were carried out by tail-vein injection of 25 to 30 μCi (0.05 to 0.1 mL) of the ^99mTc-labeled complexes Tc-(Compound A-D, H, J, K or M). At the designated time after tail-vein administration, the animals were weighed and sacrificed. The organs and tumors were harvested and, when appropriate, blotted dry, weighed, and counted in a gamma counter along with technetium-99m standards of the injected dose. The results are expressed as % ID/g tissue (Table 4 and 5)

Take `CCN(CC)CCNC(=O)c1ccc(I)cc1` [IBZA, reference compound]: in series [1], the “% Tumor uptake (In-vitro, 60 min) 4° C.” value came to 28 ± 1.4% and the “% Tumor uptake (In-vitro, 60 min) 37° C.” value was determined as 26 ± 1.4%. The “In-vivo Tumor uptake, Melanoma” value in series [2] (60 min) worked out at 5.5 % I.D./g. For the same compound, the “In-vivo M/Blood” value in series [2] (melanoma/blood ratio, 60 min) was found to be 8. Moreover, in series [2] (melanoma/lung ratio, 60 min), the “In-vivo M/Lung” value is under 1. The “In-vivo M/Spleen” value in series [2] (melanoma/spleen ratio, 60 min) was determined as 1.

Regarding `CCN(CC)CCN(CCSC(c1ccccc1)(c1ccccc1)c1ccccc1)CC(=O)NCCSC(c1ccccc1)(c1ccccc1)c1ccccc1` [Compound A, N-[(2-diethylaminoethyl)-N-(2-(2-(S-(triphenyl-methyl)thio)ethyl)amino)acetyl]-S-(triphenylmethyl)-2-aminoethane-thiol], in series [1], the “% Tumor uptake (In-vitro, 60 min) 4° C.” value is reported as 33 ± 2.4%; the “% Tumor uptake (In-vitro, 60 min) 37° C.” value was found to be 44 ± 1.6%; the “% active” value was 25%. Besides, in series [2] (mouse, in vivo), the “In-vivo M/Blood” value was found to be 7.6, the “In-vivo M/Lung” value was found to be 5.4 and the “In-vivo M/Spleen” value was 4.2.

Consider `CCCCN(CCCC)CCN(CCSC(c1ccccc1)(c1ccccc1)c1ccccc1)CC(=O)NCCSC(c1ccccc1)(c1ccccc1)c1ccccc1` [Compound B, N-[(2-dibutylaminoethyl)-N-(2-(2-(S-(triphenylmethyl)thio)ethyl)amino)-acetyl]-S-(triphenylmethyl)-2-aminoethanethiol], for which, in series [1], the “% Tumor uptake (In-vitro, 60 min) 4° C.” value was 16 ± 1.3% and the “% Tumor uptake (In-vitro, 60 min) 37° C.” value is given as 8 ± 1.9%. Further, in series [2] (mouse, in vivo), the “In-vivo M/Blood” value is 7.6, the “In-vivo M/Lung” value is 2.1 and the “In-vivo M/Spleen” value is 4.0.

Consider `O=C1CN(CCN2CCCCC2)CC[S][99Tc]2(=[O])[S]CC[N]12` (stereo not shown) [^99mTc-Compound J], for which, in series [2] (1 h post-injection), the biodistribution blood amounted to 2.26 % ID/g, the biodistribution brain came to 0.52 % ID/g, the biodistribution heart is listed as 0.91 % ID/g and the biodistribution kidney came to 4.26 % ID/g. In series [2] (1 h post-injection), this compound had a biodistribution liver of 14.9 % ID/g, a biodistribution lung of 2.50 % ID/g, a biodistribution melanoma of 5.26 % ID/g and a biodistribution muscle of 0.42 % ID/g. Moreover, in series [2] (1 h post-injection), the biodistribution spleen is 3.28 % ID/g, the mel/blood ratio is on record as 2.3, the mel/liver ratio is listed as under 1 and the mel/lung ratio worked out at 2.1. Besides, the mel/spleen ratio in series [2] (1 h post-injection) turned out to be 1.6. In series [2] (6 h post-injection), this compound yielded a biodistribution blood of 0.20 % ID/g, a biodistribution brain of 0.05 % ID/g, a biodistribution heart of 0.26 % ID/g and a biodistribution kidney of 2.31 % ID/g. In series [2] (6 h post-injection), this compound had a biodistribution liver of 4.62 % ID/g, a biodistribution lung of 0.31 % ID/g, a biodistribution melanoma of 3.33 % ID/g and a biodistribution muscle of 0.15 % ID/g. Also, in series [2] (6 h post-injection), the biodistribution spleen is reported as 0.20 % ID/g, the mel/blood ratio came to 16.7, the mel/liver ratio is under 1 and the mel/lung ratio stood at 10.7. Besides, the mel/spleen ratio in series [2] (6 h post-injection) amounted to 16.7.

Consider `CCN(CC)CCCN(CCSC(c1ccccc1)(c1ccccc1)c1ccccc1)CC(=O)NCCSC(c1ccccc1)(c1ccccc1)c1ccccc1` [Compound C, N-[(3-diethylaminopropyl)-N-(2-(2-(S-(triphenylmethyl)thio)ethyl)amino)-acetyl]-S-(triphenylmethyl)-2-aminoethanethiol], for which, in series [1], the “% Tumor uptake (In-vitro, 60 min) 4° C.” value worked out at 17 ± 1.5%; the “% Tumor uptake (In-vitro, 60 min) 37° C.” value is reported as 62 ± 0.8%; the “% active” value was determined as 73%. Also, in series [2] (mouse, in vivo), the “In-vivo M/Blood” value is 7.7, the “In-vivo M/Lung” value was found to be 2.4 and the “In-vivo M/Spleen” value came to 3.0.
